Columns and labels:
[1] = Food effect of tolperisone: open-label, single dose, 4-way crossover pharmacokinetic study in healthy male volunteers; settings: for AUC0-oo / AUC0-tlast / Cmax / Tmax / t1/2 / λz: 150 mg single oral dose, plasma, mean ± SD
Method: The study was designed as an open-label, single dose, 4-way crossover study in 24 healthy male subjects. Randomization was performed according to the Latin Square Block design. Six subjects each were distributed to the four treatment arms. Each subject completed the study having received a single dose of 150 mg, 300 mg, and 450 mg of tolperisone once daily in a fasted state, and 150 mg of tolperisone with food. The wash-out period between study periods was at least seven days.
24 healthy male subjects were planned to participate in the study. […] The study group was composed of healthy male Caucasians, aged between 18-50 years, with a body mass index of 19-28 kg/m^2.
Tolperisone, 2-methyl-1-(4-methylphenyl)-3-(1-piperidinyl)-1-propanone, was supplied in coated tablets of 150 mg (“SPH-3047”, Sanochemia Pharmazeutica AG).
The dosage regimen was a four-way crossover. Within four treatment sequences, each subject received each of the following doses once.
Procedures from Day 1 until Day 3 were as follows (time points are detailed in the tabular schedule of trial procedures): • (i) An indwelling intravenous catheter was placed for blood sampling (without using heparin). • (ii) The study drug was administered (either 150, 300, or 450 mg of tolperisone) with 200 ml non-carbonated water in a standing position in a fasting state (intake of a standard breakfast not earlier than 90 minutes after dosing). For the food effect investigation, subjects received 150 mg tolperisone after food intake. • (iii) 12-lead ECG was taken both pre-dose, and at about 2 h post-dose (+15 min); ECG recordings were performed approximately 15 minutes before blood sampling. […] 64 blood samples for the determination of tolperisone and its main metabolite were drawn at the following times: pre-dose and 0.25, 0.5, 0.75, 1.0, 1.25, 1.5, 2, 3, 4, 8, 12, 24, 36, 48, and 72 hours post-administration (16 samples at each treatment).
On Day 1, meals were identical for all four study periods, with the exception of the “fed” study period during which a standardized breakfast was served 30 min prior to dosing.
In the non-fasted study period subjects received a standardized breakfast 30 min prior to dosing. The breakfast was a high fat breakfast according to FDA recommendations and was composed of the following food items: 2 slices of toasted white bread with butter, 2 eggs fried in butter, 2 slices of bacon, 2 ounces (1 oz=28.35 g) of “hash-browns” (fried, shredded potatoes), and 8 ounces of whole milk.
Assessment of Pharmacokinetics: For pharmacokinetic analysis, 7 ml of blood were collected by using Sarstedt monovettes (Sarstedt Ltd., Leicester, UK) or Vacutainers (Becton Dickenson).
The samples were immediately stored in ice water and centrifuged within 30 min following the collection of blood (1500×g, 10 minutes) at +4° C. temperature. The plasma from each sample was divided into two equal aliquots (approx. 2×1.5 ml), which were each transferred to a polypropylene tube, and identified by a coded label. The plasma samples were then stored in a freezer at a temperature of at least −70° C. until time of analysis.

[2] = Pharmacokinetic profile of tolperisone after single and multi-dosing (150 mg regimen over 7 days) in healthy subjects under fasted and fed conditions; settings: for AUC(0-t) / AUC(inf) / Cmax / t½ / λz / AUC(0-6): mean ± SD; for Tmax: median
Method: Dosing Regimen: Subjects in each cohort received tolperisone according to the following regimen.
Blood samples for the measurement of the plasma concentrations of tolperisone and metabolites M1 (4-hydroxymethyltolperisone) and M4 (4-carboxy-tolperisone) were collected at the times shown in Table 8.
Bioanalytical: Plasma concentrations of tolperisone and metabolites M1 and M4 were measured using a validated LC/MS/MS assay by Pharm-analyt Laboratory, Baden Austria. The limits of quantitation (LOQ) for tolperisone, Mi, and M4 in plasma were 0.2 ng/ML, and 0.01 μg/mL, respectively.
Pharmacokinetic Analyses: Pharmacokinetic parameters for tolperisone, M1, and M4 were calculated using non-compartmental analysis. Only plasma concentrations greater than or equal to the LOQ for the respective assay were used in the pharmacokinetic analyses. Actual blood sampling times were used in all pharmacokinetic analyses. […] All pharmacokinetic calculations were done using SAS® for Windows® Version 9.1.3.
The maximum plasma concentration (Cmax) and time to Cmax (Tmax) were taken directly from the data. The elimination rate constant, λz, was calculated as the negative of the slope of the terminal log-linear segment of the plasma concentration-time curve. The range of data to be used for each subject and treatment was determined by visual inspection of a semi-logarithmic plot of concentration versus time. Elimination half-life (t½) was calculated according to the following equation: [formula] Area under the curve to the final sample with a concentration greater than or equal to the LOQ [(AUC(0-t)] was calculated using the linear trapezoidal method and extrapolated to infinity [AUC(inf)] using: [formula] where Ctf is the final concentration≧LOQ.
The maximum plasma concentration (Cmax) and time to Cmax (Tmax) were taken directly from the data.
The maximum plasma concentration (Cmax) and time to Cmax (Tmax) were taken directly from the data. The elimination rate constant, λz, and half-life, t½, were calculated as described for the 0800 dose on Day 1 (above). Areas under the curve to the final sample with a concentration greater than or equal to the LOQ [(AUC(O-t)] and over the 6-hour dosing interval [AUC(0-6)] were calculated using the linear trapezoidal method.

[3] = Day 1 - 0800 Dose, Fasted, Females
[4] = Day 1 - 0800 Dose, Fasted, Males
[5] = Day 1 - 0800 Dose, Fasted, both sexes
[6] = Day 1 - 0800 Dose, Fed, Females
[7] = Day 1 - 0800 Dose, Fed, both sexes
[8] = Day 1, fed vs fasted, both sexes
[9] = Day 2 - 2200 Dose, Fasted, Females
[10] = Day 2 - 2200 Dose, Fasted, Males
[11] = Day 2 - 2200 Dose, Fasted, both sexes
[12] = Day 2 - 2200 Dose, Fed, Females
[13] = Day 2 - 2200 Dose, Fed, both sexes
[14] = Day 7 - 0800 Dose, Fasted, Females
[15] = Day 7 - 0800 Dose, Fasted, Males
[16] = Day 7 - 0800 Dose, Fasted, both sexes
[17] = Day 7 - 0800 Dose, Fed, Females
[18] = Day 7 - 0800 Dose, Fed, both sexes
[19] = Day 7 - 2200 Dose, Fasted, Females
[20] = Day 7 - 2200 Dose, Fasted, Males
[21] = Day 7 - 2200 Dose, Fasted, both sexes
[22] = Day 7 - 2200 Dose, Fed, Females
[23] = Day 7 - 2200 Dose, Fed, both sexes

CC(CN1CCCCC1)C(=O)c1ccc(CO)cc1 (centres unmarked) [4-HM-Tolperisone, 4-hydroxymethyl-tolperisone]
AUC0-oo ([1]; fasted state): 1.82 ± 1.09 ng·h/mL | AUC0-tlast ([1]; fasted state): 1.20 ± 1.01 ng·h/mL | Cmax ([1]; fasted state): 1.70 ± 1.66 ng/mL | Tmax ([1]; fasted state): 0.68 h | t1/2 ([1]; fasted state): 0.55 ± 0.21 h | λz ([1]; fasted state): 1.45 ± 0.51 h⁻¹ | AUC0-oo ([1]; fed state (high fat breakfast)): 3.92 ± 2.37 ng·h/mL | AUC0-tlast ([1]; fed state (high fat breakfast)): 2.69 ± 2.18 ng·h/mL | Cmax ([1]; fed state (high fat breakfast)): 2.56 ± 3.04 ng/mL | Tmax ([1]; fed state (high fat breakfast)): 1.40 ± 0.77 h | t1/2 ([1]; fed state (high fat breakfast)): 1.19 ± 0.80 h | λz ([1]; fed state (high fat breakfast)): 0.95 ± 0.90 h⁻¹ | Tmax ([1]; fed state (high fat breakfast), listed as 4-HM-tolperisone): 1.38 h | AUC0-oo, geometric mean for the ratio 150 mg fed/150 mg fasted, point estimate ([1]; Fed/fasted, 150 mg): 1.95 | AUC0-tlast, geometric mean for the ratio 150 mg fed/150 mg fasted, point estimate ([1]; Fed/fasted, 150 mg): 2.27 | Cmax, geometric mean for the ratio 150 mg fed/150 mg fasted, point estimate ([1]; Fed/fasted, 150 mg): 1.23 | concentration in blood plasma eight hours after study drug administration ([1]; all studied doses (150, 300, and 450 mg)): below the limit of quantification | AUC(0-t) [2, 3]: 3.98 ± 2.48 (3) h · ng/mL | AUC(inf) [2, 3]: 4.10 ± 2.55 (3) h · ng/mL | Cmax [2, 3]: 2.06 ± 1.44 (3) ng/mL | t½ [2, 3]: 1.03 ± 0.090 (3) h | λz [2, 3]: 0.6787 ± 0.0627 (3) h^−1 | Tmax [2, 3]: 1.00 (3) h | AUC(0-t) [2, 4]: 3.49 ± 1.47 (7) h · ng/mL | AUC(inf) [2, 4]: 3.60 ± 1.48 (7) h · ng/mL | Cmax [2, 4]: 2.30 ± 1.50 (7) ng/mL | t½ [2, 4]: 1.16 ± 0.18 (7) h | λz [2, 4]: 0.6081 ± 0.0792 (7) h^−1 | Tmax [2, 4]: 0.75 (7) h | AUC(0-t) [2, 5]: 3.63 ± 1.69 (10) h · ng/mL | AUC(inf) [2, 5]: 3.75 ± 1.72 (10) h · ng/mL | Cmax [2, 5]: 2.22 ± 1.40 (10) ng/mL | t½ [2, 5]: 1.12 ± 0.17 (10) h | λz [2, 5]: 0.6293 ± 0.0788 (10) h^−1 | Tmax [2, 5]: 0.88 (10) h | AUC(0-t) [2, 6]: 8.23 ± 5.46 (4) h · ng/mL | AUC(inf) [2, 6]: 8.64 ± 5.79 (4) h · ng/mL | Cmax [2, 6]: 3.29 ± 2.36 (4) ng/mL | t½ [2, 6]: 1.04 ± 0.12 (4) h | λz [2, 6]: 0.6700 ± 0.0749 (4) h^−1 | Tmax [2, 6]: 2.00 (4) h | AUC(0-t) ([2]; Day 1 - 0800 Dose, Fed, Males): 4.22 ± 1.08 (6) h · ng/mL | AUC(inf) ([2]; Day 1 - 0800 Dose, Fed, Males): 4.31 ± 1.12 (6) h · ng/mL | Cmax ([2]; Day 1 - 0800 Dose, Fed, Males): 3.07 ± 0.68 (6) ng/mL | t½ ([2]; Day 1 - 0800 Dose, Fed, Males): 1.03 ± 0.09 (6) h | λz ([2]; Day 1 - 0800 Dose, Fed, Males): 0.6791 ± 0.0554 (6) h^−1 | Tmax ([2]; Day 1 - 0800 Dose, Fed, Males): 0.88 (6) h | AUC(0-t) [2, 7]: 5.82 ± 3.86 (10) h · ng/mL | AUC(inf) [2, 7]: 6.05 ± 4.11 (10) h · ng/mL | Cmax [2, 7]: 3.16 ± 1.46 (10) ng/mL | t½ [2, 7]: 1.03 ± 0.10 (10) h | λz [2, 7]: 0.6754 ± 0.0599 (10) h^−1 | Tmax [2, 7]: 1.00 (10) h | increase in the mean value for AUC(inf) on administration with food [2, 8]: 61% | increase in the mean value for Cmax on administration with food [2, 8]: 42% | Cmax [2, 9]: 1.83 ± 0.70 (3) ng/mL | Tmax [2, 9]: 0.75 (3) h | Cmax [2, 10]: 1.08 ± 0.68 (7) ng/mL | Tmax [2, 10]: 1.50 (7) h | Cmax [2, 11]: 1.30 ± 0.74 (10) ng/mL | Tmax [2, 11]: 1.25 (10) h | Cmax [2, 12]: 2.23 ± 1.99 (4) ng/mL | Tmax [2, 12]: 1.25 (4) h | Cmax ([2]; Day 2 - 2200 Dose, Fed, Males): 1.24 ± 0.60 (6) ng/mL | Tmax ([2]; Day 2 - 2200 Dose, Fed, Males): 1.00 (6) h | Cmax [2, 13]: 1.64 ± 1.33 (10) ng/mL | Tmax [2, 13]: 1.00 (10) h | mean AUC(0-6) under fed conditions higher than fasted ([2]; Day 7, 0800 dose, both sexes): 12% | mean Cmax under fed conditions lower than fasted ([2]; Day 7, 0800 dose, both sexes): 12% | AUC(0-6) [2, 14]: 5.78 ± 2.18 (3) h · ng/mL | Cmax [2, 14]: 3.79 ± 1.46 (3) ng/mL | t½ [2, 14]: 1.04 ± 0.115 (3) h | λz [2, 14]: 0.6728 ± 0.0705 (3) h^−1 | Tmax [2, 14]: 0.75 (3) h | AUC(0-6) [2, 15]: 4.13 ± 2.37 (7) h · ng/mL | Cmax [2, 15]: 2.42 ± 1.62 (7) ng/mL | t½ [2, 15]: 1.23 ± 0.22 (7) h | λz [2, 15]: 0.5766 ± 0.0978 (7) h^−1 | Tmax [2, 15]: 0.75 (7) h | AUC(0-6) [2, 16]: 4.63 ± 2.33 (10) h · ng/mL | Cmax [2, 16]: 2.83 ± 1.63 (10) ng/mL | t½ [2, 16]: 1.18 ± 0.21 (10) h | λz [2, 16]: 0.6054 ± 0.0982 (10) h^−1 | Tmax [2, 16]: 0.75 (10) h | AUC(0-6) [2, 17]: 7.28 ± 4.43 (4) h · ng/mL | Cmax [2, 17]: 3.67 ± 1.97 (4) ng/mL | t½ [2, 17]: 1.08 ± 0.35 (2) h | λz [2, 17]: 0.6783 ± 0.2222 (2) h^−1 | Tmax [2, 17]: 1.13 (4) h | AUC(0-6) ([2]; Day 7 - 0800 Dose, Fed, Males): 3.82 ± 1.23 (6) h · ng/mL | Cmax ([2]; Day 7 - 0800 Dose, Fed, Males): 1.70 ± 0.67 (6) ng/mL | t½ ([2]; Day 7 - 0800 Dose, Fed, Males): 1.08 ± 0.32 (6) h | λz ([2]; Day 7 - 0800 Dose, Fed, Males): 0.6791 ± 0.1380 (6) h^−1 | Tmax ([2]; Day 7 - 0800 Dose, Fed, Males): 1.00 (6) h | AUC(0-6) [2, 18]: 5.20 ± 3.25 (10) h · ng/mL | Cmax [2, 18]: 2.49 ± 1.61 (10) ng/mL | t½ [2, 18]: 1.08 ± 0.31 (08) h | λz [2, 18]: 0.6789 ± 0.1437 (08) h^−1 | Tmax [2, 18]: 1.00 (10) h | Cmax [2, 19]: 3.43 ± 2.15 (3) ng/mL | Tmax [2, 19]: 1.00 (3) h | Cmax [2, 20]: 1.78 ± 1.23 (7) ng/mL | Tmax [2, 20]: 1.03 (7) h | Cmax [2, 21]: 2.27 ± 1.64 (10) ng/mL | Tmax [2, 21]: 1.00 (10) h | Cmax [2, 22]: 2.35 ± 1.97 (4) ng/mL | Tmax [2, 22]: 1.25 (4) h | Cmax ([2]; Day 7 - 2200 Dose, Fed, Males): 2.09 ± 1.33 (6) ng/mL | Tmax ([2]; Day 7 - 2200 Dose, Fed, Males): 0.88 (6) h | Cmax [2, 23]: 2.20 ± 1.51 (10) ng/mL | Tmax [2, 23]: 1.00 (10) h | accumulation (increase in Cmax over the seven days of dosing) ([2]; seven days of dosing, up to 150 mg three times daily): little or no accumulation | mean elimination half-life ([2]; summary, not dependent on sex, food or duration of dosing): ~1.1 h
